# From patent US20170368037A1, “PHARMACEUTICAL COMPOSITION FOR PROMOTION OF FIBRINOLYSIS” (Daiichi Sankyo Company, Limited, priority 2014, published 2017)
# Tests used:
# [1] = tested on: fibrinolysis induced by tPA in human plasma; experiment: Fibrinolysis assay (clot lysis time in human plasma containing tPA and TM), Example 2; type: biochemical; settings: tPA 180 ng/mL, TM 0.1 nM, vs control
# Description: Edoxaban was dissolved in DMSO to prepare a 10 mM solution, which was then stored at −30° C. Before use, the frozen product was thawed and diluted with DMSO and saline (DMSO concentration in test substance solution: 1.92%).
# PCI (Sigma-Aldrich, Co. LLC.) was dissolved in Hepes buffer to prepare a 4.8 mg/mL solution, which was then stored at −30° C. Before use, the frozen product was thawed and diluted with Hepes buffer.
# Hepes buffer, tPA solution, and PPP reagent were prepared in the same way as in Example 1(2). […]
# (§1) 70 μL of the human plasma sample (containing tPA and TM), 5 μL each of varying concentrations of the edoxaban solution, 5 μL of PCI, and 20 μL of the PPP reagent were added to each well of a 96-well plate (Sumilon Proteosave SS 96F plate, MS-8296F). […] Absorbance at 405 nm was measured every 30 seconds using SpectraMAX 384 Plus prewarmed to 37° C. The time for the absorbance to decrease to ½ of the peak from the time to reach ½ of the peak was calculated using SoftMax Pro 5.4.1 and used as clot lysis time. […]
# Two experiments were conducted on each of 3 lots of human plasma (n=6). The basic statistics (mean, standard deviation, and standard error) of the clot lysis time were calculated, and the results were indicated by mean±standard error (SEM). […] Concentration dependence was evaluated by Spearman's rank correlation coefficient hypothesis test. […]
# [2] = tested on: fibrinolysis induced by tPA in human plasma; experiment: Fibrinolysis assay (clot lysis time induced by tPA in human plasma), Example 1; type: biochemical; settings: tPA 180 ng/mL, edoxaban 18.8 ng/mL to 300 ng/mL, vs control
# Description: Edoxaban was dissolved in dimethyl sulfoxide (hereinafter, also referred to as “DMSO”) (Wako Pure Chemical Industries, Ltd.) to prepare a 10 mM solution, which was then stored at −30° C. Before use, the frozen product was thawed and diluted with DMSO and saline (Otsuka Pharmaceutical Factory, Inc.) (DMSO concentration in test substance solution: 0.96%, final DMSO concentration in reaction system: 0.08%).
# Hepes buffer: Hepes (Sigma-Aldrich, Co. LLC.) and NaCl (Nacalai Tesque Inc.) were dissolved at 20 mM and 140 mM, respectively, in distilled water, and the solution was adjusted to pH 7.4 using a 1 mol/L sodium hydroxide solution (Nacalai Tesque Inc.). […]
# as §1, with “tPA), 10” for “tPA and TM), 5”, “solution,” for “solution, 5 μL of PCI,”, “Plus (Molecular Devices, LLC.)” for “Plus”, “return” for “decrease”, “5.4.1 (Molecular Devices, LLC.)” for “5.4.1”
# Two experiments were conducted on each of 3 lots of human plasma (n=6). […] The calculated P value was rounded off and indicated by three decimal places. […]
Molecule,clot lysis time ([1]; PCI alone 0.3 to 3 μg/mL),clot lysis time [2],clot lysis time ([1]; edoxaban alone 150 and 300 ng/mL)
"PCI: carboxypeptidase inhibitor from potato tuber, a TAFIa inhibitor (Sigma-Aldrich) (QQHADPICNKPCKTHDDCSGAWFCQACWNSARTCGPYVG; UniProt P01075 1-39, looked up)",significantly shortened the clot lysis time in a concentration-dependent manner,–,–
"CN1CCc2nc(C(=O)N[C@@H]3C[C@@H](C(=O)N(C)C)CC[C@@H]3NC(=O)C(=O)Nc3ccc(Cl)cn3)sc2C1 [Edoxaban, N-(5-chloropyridin-2-yl)-N′-[(1S,2R,4S)-4-(dimethylcarbamoyl)-2-(5-methyl-4,5,6,7-tetrahydro[1,3]thiazolo[5,4-c]pyridine-2-carboxamido)cyclohexyl]oxamide]",–,significantly shortened the clot lysis time in a concentration-dependent manner,significantly shortened the clot lysis time in a concentration-dependent manner
